The record followed here is US5891912A, “1,3-dialkylurea derivatives having a hydroxyl group” (Santen Pharmaceutical Co., Ltd., priority 1994, dated 1999).

The experiment addresses T1, endopeptidase 24.11 (Rattus norvegicus, UniProt P07861).
T1 construct: was prepared by extracting from a rat kidney; from tissue; host or cells: Wistar rat kidney, homogenate pellet after ultracentrifugation (crude membrane preparation)
T1 sequence (P07861 1-750): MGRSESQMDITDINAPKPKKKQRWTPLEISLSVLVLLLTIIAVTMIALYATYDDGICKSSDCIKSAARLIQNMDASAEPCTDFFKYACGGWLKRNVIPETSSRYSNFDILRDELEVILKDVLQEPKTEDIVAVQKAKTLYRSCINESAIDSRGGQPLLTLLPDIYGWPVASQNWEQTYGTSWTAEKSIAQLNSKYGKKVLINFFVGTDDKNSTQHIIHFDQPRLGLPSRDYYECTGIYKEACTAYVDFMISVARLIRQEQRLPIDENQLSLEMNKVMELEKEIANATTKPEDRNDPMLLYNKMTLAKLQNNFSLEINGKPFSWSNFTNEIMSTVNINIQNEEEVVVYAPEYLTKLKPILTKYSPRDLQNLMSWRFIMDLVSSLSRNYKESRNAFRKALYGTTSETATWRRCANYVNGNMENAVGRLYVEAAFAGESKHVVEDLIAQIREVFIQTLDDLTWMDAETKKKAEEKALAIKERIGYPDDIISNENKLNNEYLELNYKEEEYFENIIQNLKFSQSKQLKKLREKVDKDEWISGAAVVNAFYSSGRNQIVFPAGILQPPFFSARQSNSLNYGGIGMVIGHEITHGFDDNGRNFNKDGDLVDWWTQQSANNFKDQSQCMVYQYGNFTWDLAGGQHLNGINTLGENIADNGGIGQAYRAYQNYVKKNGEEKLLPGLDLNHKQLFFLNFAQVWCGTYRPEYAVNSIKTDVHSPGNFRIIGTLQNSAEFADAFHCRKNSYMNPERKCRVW
Nature of the experiment: inhibition of endopeptidase 24.11 activity (cleavage of N-dansyl-D-alanyl-glycyl-p-nitrophenylalanyl-glycine, DAGNPG; rat kidney enzyme preparation). The format is biochemical, Wistar rat. As to conditions: DAGNPG 50 μM, pH 7.4, 37° C., 30 minutes, read-out: IC50 (concentration required to inhibit endopeptidase 24.11 by 50%). The text has this:
As a method for measuring an endopeptidase 24.11 activity, Florentin et al. had reported a method for measuring the enzyme activity by a degree of cleavage of a peptide bond between glycine and p-nitrophenylalanine using N-dansyl-D-alanyl-glycyl-p-nitrophenylalanyl-glycine (DAGNPG) as a substrate (Anal. Biochem., 141, 62-69 (1984)). An effect of the compounds of the invention on endopeptidase 24.11 was examined according to the method described in the literature.
An enzyme preparation used in this pharmacological test was prepared by extracting from a rat kidney by the following method according to the method of Malfloy et al. (J. Biol. Chem., 259, 14365-14370 (1984)).
A kidney was excised from a Wistar rat. The kidney was homogenized in Tris-hydrochloric acid buffer (5 mM, pH 7.4, containing 125 mM D-mannitol and 12 mM magnesium chloride). The homogenate was centrifuged at low speed (1,000×g) to give a supernatant. The supernatant was ultracentrifuged ([…]) for 120 minutes. The resulting pellet was suspended in Tris-hydrochloric acid buffer (2.5 mM, pH 7.4, containing 62.5 mM D-mannitol and 6 mM magnesium chloride). The suspension was centrifuged at low speed and then ultracentrifuged again. The resulting pellet was suspended in HEPES buffer (5 mM, pH 7.4) to give the enzyme preparation.
In order to examine the effect of the compounds of the invention on the enzyme preparation, reactions were performed under the following condition using mixed solutions consisting of the composition shown in Table 1. […]
______________________________________
Enzyme preparation 0.3-0.5 μg protein
The above-mentioned solution (150 μl) was incubated at 37° C. for 30 minutes and then boiled at 100° C. for 5 minutes. To the solution was added 1.35 ml of Tris-hydrochloric acid buffer (50 mM, pH 7.4). The mixture was centrifuged at moderate speed (5,000×g) for 5 minutes to give a supernatant. Fluorescence intensity of the supernatant (excitation at 342 nm of wave length and emission at 562 nm) was measured.
The degree of the inhibitory effect of each test compound on the enzyme preparation was expressed by the inhibition rate calculated by the following equation. [formula]
A: fluorescence intensity of the sample in the absence of the test compound
B: fluorescence intensity of the sample in the presence of the test compound
Consider `CC(C)CN(CC(O)C(=O)O)C(=O)N[C@@H](Cc1ccccc1)C(=O)O` (mixture of isomers) [Compound No. 2-1, (2S)-2-[3-[(2RS)-2-Carboxy-2-hydroxyethyl]-3-isobutylureido]-3-phenylpropionic acid], for which the IC50 was determined as 5.4 nM.

Regarding `CC(C)CN(CC(O)C(=O)O)C(=O)N[C@@H](Cc1ccc(-c2ccccc2)cc1)C(=O)O` (mixture of isomers) [Compound No. 3-1, (2S)-3-(4-Biphenylyl)-2-[3-[(2RS)-2-carboxy-2-hydroxyethyl]-3-isobutylureido]propionic acid], the IC50 was found to be 1.1 nM.

Take `CC(C)CN(CC(O)C(=O)O)C(=O)N[C@@H](Cc1ccc(-c2ccc(F)cc2)cc1)C(=O)O` (mixture of isomers) [Compound No. 3-2, (2S)-2-[3-[(2RS)-2-Carboxy-2-hydroxyethyl]-3-isobutylureido]-3-[4-(4-fluorophenyl)phenyl]propionic acid]: the IC50 turned out to be 3.1 nM.

As for `CC(C)CN(CC(O)C(=O)O)C(=O)N[C@H](C(=O)O)c1ccccc1` (mixture of isomers) [Compound No. 3-4, (2RS)-3-[3-[(S)-α-Carboxybenzyl]-1-isobutylureido]-2-hydroxypropionicacid], the IC50 is 65 nM.

For the molecule `CC(C)CN(C[C@H](O)C(=O)NO)C(=O)N[C@@H](Cc1ccccc1)C(=O)O` [Compound No. 8-1, (2S)-2-[3-[(2S)-2-Hydroxy-2-hydroxycarbamoylethyl]-3-isobutylureido]-3-phenylpropionic acid], the IC50 turned out to be 0.32 nM.

With `CC(C)CN(C[C@H](O)C(=O)O)C(=O)N[C@@H](Cc1ccc(-c2ccccc2)cc1)C(=O)O` [Compound No. 8-2, (2S)-3-(4-Biphenylyl)-2-[3-[(2S)-2-carboxy-2-hydroxyethyl]-3-isobutylureido]propionic acid], the IC50 stood at 0.95 nM.

On to `CC(C)CN(C[C@@H](O)C(=O)O)C(=O)N[C@@H](Cc1ccc(-c2ccccc2)cc1)C(=O)O` [Compound No. 8-3, (2S)-3-(4-Biphenylyl)-2-[3-[(2R)-2-carboxy-2-hydroxyethyl]-3-isobutylureido]propionic acid], for which the IC50 worked out at 2.1 nM.

On to `CC(C)CN(C[C@H](O)C(=O)NO)C(=O)N[C@@H](Cc1ccc(-c2ccccc2)cc1)C(=O)O` [Compound No. 8-9, (2S)-3-(4-Biphenylyl)-2-[3-[(2S)-2-hydroxy-2-hydroxycarbamoylethyl]-3-isobutylureido]propionic acid], for which the IC50 is 0.16 nM.

On to `CC(C)CN(C[C@H](O)C(=O)NO)C(=O)N[C@@H](Cc1ccc2ccccc2c1)C(=O)O` [Compound No. 9-1, (2S)-2-[3-[(2S)-2-Hydroxy-2-hydroxycarbamoylethyl]-3-isobutylureido]-3-(2-naphthyl)propionic acid], for which the IC50 was 0.27 nM.
